The results in this text go back to patent US20090047221A1 (NIPRI LIMITED, priority 2004, published 2009).

Where two headings read alike, the source gives them in different places. Where only a bound is given, the exact number is not on record here.

Common to all, as to format: cell-based
One experiment has as its system MCF-7. Put plainly: MTT assay (anti-proliferative activity). As to conditions: read-out: IC 50 MCF-7. As for the experimental part: (§1) The MTT assay was used initially to determine the anti-proliferative activity of the test compounds. In the MTT assay a yellow thiazolyl blue tetrazolium bromide salt (MTT) is reduced, in metabolically active cells, to form insoluble purple formazan crystals which are solubilised by the addition of dimethyl sulphoxide (DMSO).
(§2) Wells containing medium only were used as blanks. Following the attachment period, cells were treated with appropriate drug concentrations (20 μl added per well). 40 mg/ml stock drug solutions, in DMSO, were stored at −20° C. and on the day of drug treatment working solutions of 4 mg/ml were prepared in medium which was further diluted to achieve final drug dilution volumes of 20 μl. Initial screening was determined over a concentration range of 1-200 μg/ml. […] Cells were exposed to drug for 96 h continual exposure (37° C., 5% CO2). Following the 96 h incubation, 50 μl MTT solution (1 g MTT/500 ml PBS) was added per well and the plates were further incubated for 4 h (37° C., 5% CO2). After incubation the MTT and medium was removed from the wells and 100 μl DMSO added per well. Plates were agitated on an orbital mixer platform (Stuart Scientific) for 10 minutes. Absorbance was measured at 570 nm on a Biotrak II (Amersham Bioscience) plate reader. IC50 values were calculated comparing control and drug treated cells.
(Formazan colour is commonly taken as a measure of viable cells.)

A further experiment relates to MDA-MB-468. The experiment can be described thus: MTT assay (anti-proliferative activity). The settings on record: read-out: IC 50 MDA-MB-468. Here is the method: as §1, §2
The test system of another experiment is MalMe3M. Put plainly: MTT assay (anti-proliferative activity). The settings on record: 96 h continual exposure, read-out: IC 50 MalMe3M. As for the experimental part: as §1, §2
The next experiment concerns SkMel28. The experiment can be described thus: MTT assay (anti-proliferative activity). As to conditions: read-out: IC 50 SkMel28. Here is the method: as §1, §2
The test system of the next experiment is H157. The experiment can be described thus: MTT assay (anti-proliferative activity). The settings on record: Homo sapiens, NCI-H157. The text has this:
(§3) The MTT assay was used initially to determine the anti-proliferative activity of the test compounds. In the MTT assay a yellow thiazolyl blue tetrazolium bromide salt (MTT) is reduced, in metabolically active cells, to form insoluble purple formazan crystals which are solubilised by the addition of dimethyl sulphoxide (DMSO). Absorbance readings can then be determined spectrophotometrically and a relationship established between control untreated cells and drug treated cells enabling the quantification of anti-proliferative changes as a result of drug treatment (Mosmann, 1983).
(§4) Wells containing medium only were used as blanks. Following the attachment period, cells were treated with appropriate drug concentrations (20 μl added per well). 40 mg/ml stock drug solutions, in DMSO, were stored at −20° C. and on the day of drug treatment working solutions of 4 mg/ml were prepared in medium which was further diluted to achieve final drug dilution volumes of 20 μl. Initial screening was determined over a concentration range of 1-200 μg/ml. For potent compounds the assay was repeated over a narrower concentration range to determine accurate IC50 values. Cells were exposed to drug for 96 h continual exposure (37° C., 5% CO2). Following the 96 h incubation, 50 μl MTT solution (1 g MTT/500 ml PBS) was added per well and the plates were further incubated for 4 h (37° C., 5% CO2). After incubation the MTT and medium was removed from the wells and 100 μl DMSO added per well. Plates were agitated on an orbital mixer platform (Stuart Scientific) for 10 minutes. Absorbance was measured at 570 nm on a Biotrak II (Amersham Bioscience) plate reader. IC50 values were calculated comparing control and drug treated cells.

A further experiment concerns H23. Put plainly: MTT assay (anti-proliferative activity).
Description: as §3, §4

The next experiment relates to HCT+/+. Put plainly: MTT assay (anti-proliferative activity).
Description: as §3, §4

The test system of another experiment is HCT−/−. Put plainly: MTT assay (anti-proliferative activity).
Description: as §3, §4

For another experiment, the system named is HT29. The experiment can be described thus: MTT assay (anti-proliferative activity).
Description: as §3, §4

For the next experiment, the system named is LNCAP. Put plainly: MTT assay (anti-proliferative activity).
Description: as §3, §4

A further experiment has as its system PC3. Put plainly: MTT assay (anti-proliferative activity).
Description: as §3, §4

The subject of another experiment is PNT2. Put plainly: MTT assay (anti-proliferative activity).
Description: as §3, §4

The test system of another experiment is RKO. Put plainly: MTT assay (anti-proliferative activity).
Description: as §3, §4

The test system of the next experiment is ZR-75-1. Put plainly: MTT assay (anti-proliferative activity).
Description: as §3, §4

In experiment [1] the test system is breast cancer (MDA-MB-468 and MCF-7 cell lines) and melanoma cell lines (MalMe3, SkMe128). Put plainly: Cell cycle analysis by flow cytometry (propidium iodide); apoptosis as cells in sub G0/G1 (pre G0) peak. As to conditions: following treatment with IC70 concentration of compound. Here is the method: Assessment of cell cycle analysis was performed using propidium iodide staining of cells and subsequent analysis on a Beckton Dickinson flow cytometer. […] The following day the medium was removed and replaced with 5 ml medium per flask containing the appropriate drug concentrations to be tested. 40 mg/ml stock drug solutions in DMSO were stores at −20° C. and on the day off drug treatment working solutions of 4 mg/ml were prepared in medium from which the final drug dilutions were prepared. Cells were maintained in an incubator (37° C., 5% CO2) for up to 96 h post treatment. After 24, 48, 72 or 96 h time points the medium from each flask was collected, stored on ice, and the remaining cells in the flasks were trypsinised by aiding 1 ml trypsin-EDTA solution to each flask. Cells were replaced into the incubator for 10 min to allow them to detach from the plastic plate. The cells in each flask were collected by adding the appropriate medium removed from each flask back to the corresponding flask and then placing medium containing both the attached and floating cells into a 15 ml tube. Cells were centrifuged at 4° C. for 5 min at 1500 rpm and the supernatant removed from each tube. The remaining cells were washed twice in ice cold PBS and then fixed in ice cold methanol overnight at −20° C. On the day of analysis of cells each tube was centrifuged at 4° C. for 5 min at 1500 rpm and the methanol removed and the cells washed twice in ice cold PBS. 20 μl propidium iodide solution (1 mg/ml) and 20 μl RNase A (10 mg/ml solution) were added to 1 ml PBS per tube and the cells were incubated for 30 min at 37° C. Cells were analysed on the flow cytometer and cell cycle changes were assessed.
Background: A flow cytometer gives signals particle by particle.

In experiment [2] the test system is caspase 3 in MDA-MB-468 breast cancer cells. The experiment can be described thus: Western blotting (immunoblot), caspase 3 cleavage. The settings on record: concentrations similar to those required to kill MDA-MB-468 breast cancer cells. Here is the method:
Western blotting was used to assess drug induced changes of cellular proteins. Cells were seeded in P90 tissue culture vessels and treated with drugs at a range of concentrations for 72 and 96 h. Following incubation of cells for the required duration the medium was collected from the cells and attached cells were scraped from the tissue culture vessel and collected into the medium. Excess medium was removed by centrifugation at 4° C. for 5 minutes at […] and the supernatant removed from each tube. The remaining cells were washed twice in ice cold PBS and then incubated on ice with protein extraction buffer (10 mM Tris-HCl, 150 mM NaCl, 1 mM EDTA, 1% Triton-X, 0.1% SDS and a protease inhibitor) for 20 min. Cells were sonicated and centrifuged for 5 min at 4° C. and the supernatant removed for subsequent analysis. Protein samples were stored at −70° C. until analyses. 8, 10 or 12% acrylamide gels were prepared and used depending on size of protein to be determined. Protein concentrations were determined using the BCA™ (bicinchoninic acid) protein determination assay (Pierce) according to manufacturer's guidelines and 30-50 μg protein samples were loaded and separated on the acrylamide gels. Gels were ran at 150V for approximately 2 h at 4° C. Following separation of the protein samples each was transferred to a PVDF transfer membrane (Hybond-P) overnight at 4° C. at 40V. […]
A general note: Immunoblotting shows a protein as a band on a membrane.

Experiment [3] is described as follows: Synergy with known cancer drugs measured using an MTT assay (FIGS. 9a-9c). As to conditions: ALM-54 at 0.5 μg.
Description: as §3, §4

For `CC1Cc2cccc(O)c2C(=O)O1` (racemic) [ALM-9, Racemic Mellein], the IC50 with MCF-7 (Homo sapiens, MCF7, 96 h continual exposure) is 946 µM; in the experiment with MDA-MB-468 (Homo sapiens, MDA-MB-468, 96 h continual exposure), 283 µM; in the experiment with MalMe3M (Homo sapiens, Malme-3M), over 960 µM; in the experiment with SkMel28 (Homo sapiens, SK-MEL-28, 96 h continual exposure), 821 µM; in the experiment on H157 it was over 561 µM; in the experiment on H23 (Homo sapiens, NCI-H23), over 561 µM. Besides, the IC50 with HCT+/+ is over 561 µM; in the experiment with HCT−/−, over 561 µM; in the experiment with HT29 (Homo sapiens, HT-29), 561 µM; in the experiment on LNCAP (Homo sapiens, LNCaP), over 561 µM; with PC3 (Homo sapiens, PC-3), 421 µM; with PNT2 (Homo sapiens, PNT2), 421 µM. Also, the IC50 in the experiment with RKO (Homo sapiens, RKO) came to 494 µM; with ZR-75-1 (Homo sapiens, ZR-75-1) it was 281 µM. Further, the “% Cells in Pre G0 phase of Cell Cycle” value in experiment [1] stood at 30.4%. For the same molecule, the “cleavage and activation of caspase 3 (immunoblot)” value in experiment [2] was “promotes the cleavage and thus the activation of caspase 3”.

With `CC1Cc2ccc(C(=O)NC(Cc3ccccc3)C(=O)O)c(O)c2C(=O)O1` (mixture of isomers) [ALM-54], the IC50 worked out at 16.2 µM in the experiment with MCF-7 (96 h continual exposure); 10.8 µM in the experiment on MDA-MB-468 (96 h continual exposure); 13.5 µM with MalMe3M; 46 µM with SkMel28 (96 h continual exposure); 2 µM in the experiment with H23; 16.3 µM in the experiment with HCT+/+. The IC50 is 10.8 µM with HCT−/−; 1.3 µM with HT29; 4.7 µM in the experiment on LNCAP; 5.4 µM in the experiment on PC3; 5.4 µM with PNT2; 2.7 µM in the experiment on RKO. Further, in the experiment with ZR-75-1, the IC50 is 0.13 µM. Besides, the “% Cells in Pre G0 phase of Cell Cycle” value in [1] is on record as 12.8%. The synergy with irinotecan result in [3] (FIG. 9a) is recorded as “synergy”. In addition, the synergy with vinorelbine result in experiment [3] (FIG. 9b) is “synergy”. The synergy with cisplatin entry in experiment [3] (FIG. 9c) was “synergy”.
